From ChEMBL document CHEMBL1141750, “Phenanthroindolizidine alkaloids from the stems of Ficus septica” (2005)

Columns and labels:
[1] = Cytotoxicity against human HONE1 at 10 uM after 3 days by MTS reduction assay; format: functional; conditions: HONE1, 72 h
NUGC = assay: Cytotoxicity against human NUGC at 10 uM after 3 days by MTS reduction assay; format: functional; conditions: 72 h

| Structure (SMILES) | inhibition at 10 µM [1] [%] | inhibition at 10 µM (NUGC) [%] |
| --- | --- | --- |
| COc1cc2c3c(c4ccc(OC)c(OC)c4c2cc1OC)C[C@H]1CCC[N@+]1([O-])C3 | 87 | 93 |
| COc1cc2c3c(c4ccc(OC)c(OC)c4c2cc1OC)C[N@@+]1([O-])CCC[C@@H]1C3 | 92 | 94 |
| COc1cc2c3c(c4cc(OC)c(OC)cc4c2cc1OC)CN1CCC[C@@H]1C3 [TYLOPHORINE] | 80 | 85 |
